Where “and” joins values, the source holds several entries; their conditions need not be identical. Identical values can stand only once. Like-named read-outs stand apart in the source and are kept apart here.
What was measured:
OATP1B [1] = assay: Nonlinear regression of AUCR^-1 vs rifampicin Cmax; type: in vivo, human; details: from AUCR based on AUC0-24h
OATP1B [2] = assay: Effect of rifampicin on plasma AUC0-24h of endogenous compounds; type: in vivo, human; details: for AUC0-24h Geometric Mean Ratio Control/Baseline (90% CI): probe cocktail vs placebo day; for AUC0-24h Geometric Mean Ratio +RIF/Control (90% CI): +RIF600
OATP1B [3] = details: +RIF600
[4] = cited from earlier work
[5] = type: in vivo; details: human, plasma, po

| fRIF (fraction sensitive to inhibition by rifampicin) (OATP1B [1]) | AUC0-24h Geometric Mean Ratio +RIF/Control (90% CI) (OATP1B [2]) | Compound | other results |
| --- | --- | --- | --- |
| 0.801 ± 0.124 | – | C[C@H](CCC(=O)O[C@@H]1O[C@H](C(=O)O)[C@@H](O)[C@H](O)[C@H]1O)[C@H]1CC[C@H]2[C@@H]3[C@H](O)C[C@@H]4C[C@H](O)CC[C@]4(C)[C@H]3CC[C@]12C [CDCA-24G, chenodeoxycholate‐24‐glucuronide] | AUC0-24h Geometric Mean Ratio Control/Baseline (90% CI) (OATP1B [2]): > 1.25 and 1.4 |
| – | – | C[C@H](CCC(=O)NCC(=O)O)[C@H]1CC[C@H]2[C@@H]3[C@H](O)C[C@@H]4C[C@H](O)CC[C@]4(C)[C@H]3C[C@H](O)[C@]12C [GCA, glycocholate] | AUC0-24h Geometric Mean Ratio Control/Baseline (90% CI) (OATP1B [2]): > 1.25 |
| – | – | C[C@H](CCC(=O)NCC(=O)O)[C@H]1CC[C@H]2[C@@H]3[C@H](O)C[C@@H]4C[C@H](O)CC[C@]4(C)[C@H]3CC[C@]12C [GCDCA, glycochenodexoxycholate] | AUC0-24h Geometric Mean Ratio Control/Baseline (90% CI) (OATP1B [2]): > 1.25 |
| 1 ± 0.08 | ~ 15 | C[C@H](CCC(=O)NCC(=O)O)[C@H]1CC[C@H]2[C@@H]3[C@H](O)C[C@@H]4C[C@H](O[C@@H]5O[C@H](C(=O)O)[C@@H](O)[C@H](O)[C@H]5O)CC[C@]4(C)[C@H]3CC[C@]12C [GCDCA-G, glycochenodeoxycholate‐3‐glucuronide] | – |
| – | greater than 2 | C[C@H](CCC(=O)NCC(=O)O)[C@H]1CC[C@H]2[C@@H]3CC[C@@H]4C[C@H](OS(=O)(=O)O)CC[C@]4(C)[C@H]3C[C@H](O)[C@]12C [GDCA-S, glycodeoxycholate‐3‐sulfate] | – |
| – | greater than 2 | C[C@H](CCC(=O)NCC(=O)O)[C@H]1CC[C@H]2[C@@H]3CC[C@@H]4C[C@H](OS(=O)(=O)O)CC[C@]4(C)[C@H]3CC[C@]12C [GLCA-S, glycolithocholate‐3‐sulfate] | – |
| 0.776 ± 0.093 | – | O=C(O)CCCCCCCCCCCCCCC(=O)O [HDA, hexadecanedioic acid] | – |
| 0.810 ± 0.043 | – | O=C(O)C[C@H](O)C[C@H](O)/C=C/c1c(C2CC2)nc2ccccc2c1-c1ccc(F)cc1 [Pitavastatin, pitavastatin, reference compound] | AUC0-24h Geometric Mean Ratio +RIF/Control (90% CI) (OATP1B [3]): 4.0 |
| 0.702 ± 0.122 | – | CC(C)c1nc(N(C)S(C)(=O)=O)nc(-c2ccc(F)cc2)c1/C=C/[C@@H](O)C[C@@H](O)CC(=O)O [Rosuvastatin, rosuvastatin] | contribution of urinary excretion to the systemic elimination [4]: ca. 20%; AUC0-24h Geometric Mean Ratio +RIF/Control (90% CI) (OATP1B [3]): 2.5 |
| – | greater than 2 | C[C@H](CCC(=O)NCCS(=O)(=O)O)[C@H]1CC[C@H]2[C@@H]3CC[C@@H]4C[C@H](OS(=O)(=O)O)CC[C@]4(C)[C@H]3CC[C@]12C [TLCA-S, taurolithocholate‐3‐sulfate] | – |
| 0.831 ± 0.036 | – | CCCCC(=O)N(Cc1ccc(-c2ccccc2-c2nnn[nH]2)cc1)[C@H](C(=O)O)C(C)C [Valsartan, valsartan, reference compound] | AUC0-24h Geometric Mean Ratio +RIF/Control (90% CI) (OATP1B [3]): 5.5 |
| – | – | CO[C@H]1/C=C/O[C@@]2(C)Oc3c(C)c(O)c4c(O)c(c(/C=N/N5CCN(C)CC5)c(O)c4c3C2=O)NC(=O)/C(C)=C\C=C\[C@H](C)[C@H](O)[C@@H](C)[C@@H](O)[C@@H](C)[C@H](OC(C)=O)[C@@H]1C [rifampicin] | AUC(0-t) ([5]; 150 mg): 19.8 ± 1.2 µM·h; Cmax ([5]; 150 mg): 4.78 ± 0.29 µM; AUC(0-t) ([5]; 300 mg): 55.5 ± 3.4 µM·h; AUC(0-t) ([5]; 600 mg): 141 ± 9 µM·h; Cmax ([5]; 600 mg): 22.8 ± 2.6 µM |
| 0.976 ± 0.180 | 2.8 | direct bilirubins [D-BIL] | – |
